Results taken from US4576951A, “Proglumide, pharmaceutical preparations and compositions including it for use in human pain relief” (priority 1983, dated 1986).
Like-named read-outs stand apart in the source and are kept apart here.

Experiments:
[1] = type: in vivo, rats
Procedure: Activity of proglumide as an antagonist to the tolerance induced by opiates
Groups of five male rats having a weight of about 200-250 g were used.
The determination of the pain threshold was effected 1, 3, 6, 9 and 12 hours after the first treatment by the Tail Flick test.
The data given in Table 5 indicate the percentage variations in the latency (appearance of pain) before and after treatment with the drugs.

[2] = Potentiation of analgesic effect of enkephalinamide (DALA) i.c.v. (Tail Flick test); type: in vivo, rats
Procedure: Potentiation of the analgesic activities of enkephalins induced by proglumide
In order to check one of the possible mechanisms for the action of proglumide, that is its possible inhibition of the enzymatic degradation of endogenous enkephalins, the following experiment was carried out:
A cannula was implanted in the right lateral ventricle of male rats having a weight of 150-200 g (groups of five animals were used) in order to allow the intracerebroventricular (I.C.V.) administration of drugs according to the method of Noble et al (Life Science 6, (1970) 281-291). […]

[3] = Hot plate test: potentiation of analgesic activity of opiates; type: in vivo, rats; settings: proglumide 5 mg/kg s.c.
Procedure: The method is that described by Eddy et al. (J. Pharmac. Exp. Therm. 107, 385 (1953)).
Groups of five male rats having a weight of about 150 g and which have not been fasting are used.
The animals are placed on a metal plate which is on the bottom of a transparent cylinder heated to 55°±1° C. by an azeotropic boiling mixture (1:1 acetone-ethyl formate). The time which passes between the moment at which the animal is placed on the hot plate and the moment at which it licks its feet or tries to jump out of the cylinder is defined as the reaction time. The control reaction time is measured 10 and 5 minutes before the administration of the drugs and 10, 20, 30, 45, 60, 90 minutes afterwards. The animals are left on the plate for a maximum period of 30 seconds. The response to the administration of the product is considered positive if at least a doubling of the normal reaction time is seen. The results obtained are given in Table 2 which records the groups treated, the doses administered and the stay times on the plate expressed as the number of positive responses over the number treated.

[4] = type: in vivo, rats; remark: listed apart in the source
Procedure: The method is that described by Harris et al. (J. Pharmcol. Exp. Ther. 143 (1964) 141-148).
Male rats are used which have a weight of about 150-200 g and which have not been fasting. A point is chosen on the tail and this is irradiated by a heat source (75° C.) and the time (in seconds) for which the animal remains without moving its tail is measured.
A maximum period of time under the heat source of 8 seconds is chosen after which the animal is, in any case, removed in order to avoid tissue damage. The measurement is effected before (controls) and after treatment with the drugs. […] The percentage variation is calculated for each individual animal by the following formula: [formula] (time measurements are in seconds)
The measurements are carried out 10, 20, 30, 45, 60 and 90 minutes after treatment with the analgesics.

in vivo = settings: mouse, sc
Procedure: The drug (or drugs) under examination was administered sub-cutaneously. The animals were kept under observation for 15 days after the administration.
Ten animals were used for each dose.

[5] = Tail Flick Test after transcutaneous shock: analgesic activity of endogenous opiates; type: in vivo, rats
Procedure: Influence of proglumide on the analgesic activity of endogenous opiates released under transcutaneous shock in rats measured by the Tail Flick Test The method is that described by Lewis et al. (J. Naurosc. 1, 358 (1981)). Male rats having a weight of about 200 g, which have not been fasting, are used. The animals are stressed by the application to the front leg of a 60 Hz-2.5 mA current in pulses of a duration of one second every five seconds for 20 minutes. This stress regime causes the release of endogenous opiates.

[6] = 1 min, proglumide 20 mg/kg, no stress
[7] = 1 min, stress + proglumide 1 mg/kg
[8] = 1 min, stress + proglumide 5 mg/kg
[9] = 1 min, stress + proglumide 20 mg/kg
[10] = 5 min, proglumide 20 mg/kg, no stress
[11] = 5 min, stress + proglumide 1 mg/kg
[12] = 5 min, stress + proglumide 5 mg/kg
[13] = 5 min, stress + proglumide 20 mg/kg
[14] = 10 min, proglumide 20 mg/kg, no stress
[15] = 10 min, stress + proglumide 1 mg/kg
[16] = 10 min, stress + proglumide 5 mg/kg
[17] = 10 min, stress + proglumide 20 mg/kg
[18] = 15 min, proglumide 20 mg/kg, no stress
[19] = 15 min, stress + proglumide 1 mg/kg
[20] = 15 min, stress + proglumide 5 mg/kg
[21] = 15 min, stress + proglumide 20 mg/kg

CCCN(CCC)C(=O)C(CCC(=O)O)NC(=O)c1ccccc1 (racemic) [Proglumide, D,L-4-benzamido-N, N-dipropylglutaramic acid]
antagonism of development of tolerance ([1]; proglumide 20 mg/kg): highly significant | effect on development of tolerance induced by morphine ([1]; rat, in vivo, ip): opposes the development of tolerance | % variation in the latency to pain ([2]; 5 min, alone i.c.v.: proglumide 1 or DALA 10 μg/kg): 18.06 ± 10.8% | % variation in the latency to pain ([2]; 15 min, alone i.c.v.: proglumide 1 or DALA 10 μg/kg): 2.18 ± 10.6% | % variation in the latency to pain ([2]; 30 min, alone i.c.v.: proglumide 1 or DALA 10 μg/kg): 18.36 ± 5.9% | % variation in the latency to pain ([2]; 45 min, alone i.c.v.: proglumide 1 or DALA 10 μg/kg): -10.94 ± 14.5% | % variation in the latency to pain ([2]; 60 min, alone i.c.v.: proglumide 1 or DALA 10 μg/kg): -5.58 ± 8.1% | % variation in the latency to pain ([2]; 90 min, alone i.c.v.: proglumide 1 or DALA 10 μg/kg): 13.3 ± 8.4% | Average (0 → 90) % variation in the latency to pain ([2]; alone i.c.v.: proglumide 1 or DALA 10 μg/kg): 5.9 ± 5.12% | action on the analgesic effect of the enkephalinamide (DALA) ([2]; i.c.v.): potentiating action of proglumide on the analgesic effect of the enkephalinamide (DALA) both in intensity and duration | significance of potentiating action on DALA analgesia ([2]; proglumide 1 μg/kg): highly significant | increase of the analgesic effect of morphine and methadone [3]: at least double | ED50 for potentiation of the analgesic effect (proglumide increasing effect by 50%) ([4]; rat, in vivo, ip): 4.15 mg/kg | ED50 for potentiation of the analgesic effect (proglumide increasing effect by 50%) ([4]; strengthening of propoxyphene): 2.26 mg/kg | LD50 at 360 h (in vivo): > 5000 mg/kg | Average latency (tail flick) [5, 6]: 3.66 ± 0.25 s | t (vs control stress) [5, 6]: 6.90 | t (vs control) [5, 6]: 0.37 | t (vs control stress) [5, 7]: 0.92 | t (vs control) [5, 7]: 5.21 | t (vs control stress) [5, 8]: 0.87 | t (vs control) [5, 8]: 4.25 | t (vs control stress) [5, 9]: 6.14 | t (vs control) [5, 9]: 9.54 | Average latency (tail flick) ([5]; 1 min after shock, stress + proglumide 1 mg/kg): 6.37 ± 0.45 s | Average latency (tail flick) ([5]; 1 min after shock, stress + proglumide 5 mg/kg): 6.33 ± 0.57 s | Average latency (tail flick) ([5]; 1 min after shock, stress + proglumide 20 mg/kg): 13.59 ± 1.0 s | Average latency (tail flick) [5, 10]: 3.59 ± 0.20 s | t (vs control stress) [5, 10]: 5.88 | t (vs control) [5, 10]: 1.36 | t (vs control stress) [5, 11]: 0.69 | t (vs control) [5, 11]: 5.18 | t (vs control stress) [5, 12]: 2.74 | t (vs control) [5, 12]: 5.62 | t (vs control stress) [5, 13]: 3.90 | t (vs control) [5, 13]: 7.29 | Average latency (tail flick) ([5]; 5 min after shock, stress + proglumide 1 mg/kg): 6.55 ± 0.43 s | Average latency (tail flick) ([5]; 5 min after shock, stress + proglumide 5 mg/kg): 8.5 ± 0.76 s | Average latency (tail flick) ([5]; 5 min after shock, stress + proglumide 20 mg/kg): 9.16 ± 0.67 s | Average latency (tail flick) [5, 14]: 3.57 ± 0.16 s | t (vs control stress) [5, 14]: 2.57 | t (vs control) [5, 14]: 0.12 | t (vs control stress) [5, 15]: 0.86 | t (vs control) [5, 15]: 1.83 | t (vs control stress) [5, 16]: 0.72 | t (vs control) [5, 16]: 2.98 | t (vs control stress) [5, 17]: 5.01 | t (vs control) [5, 17]: 7.02 | Average latency (tail flick) ([5]; 10 min after shock, stress + proglumide 1 mg/kg): 4.07 ± 0.22 s | Average latency (tail flick) ([5]; 10 min after shock, stress + proglumide 5 mg/kg): 4.66 ± 0.32 s | Average latency (tail flick) ([5]; 10 min after shock, stress + proglumide 20 mg/kg): 6.94 ± 0.44 s | Average latency (tail flick) [5, 18]: 3.57 ± 0.15 s | t (vs control stress) [5, 18]: 0.04 | t (vs control) [5, 18]: 1.49 | t (vs control stress) [5, 19]: 0.43 | t (vs control) [5, 19]: 0.82 | t (vs control stress) [5, 20]: 0.98 | t (vs control) [5, 20]: 0.11 | t (vs control stress) [5, 21]: 3.34 | t (vs control) [5, 21]: 2.89 | Average latency (tail flick) ([5]; 15 min after shock, stress + proglumide 1 mg/kg): 3.68 ± 0.16 s | Average latency (tail flick) ([5]; 15 min after shock, stress + proglumide 5 mg/kg): 3.81 ± 0.16 s | Average latency (tail flick) ([5]; 15 min after shock, stress + proglumide 20 mg/kg): 4.78 ± 0.32 s | effect on the analgesic effect of endogenous enkephalins ([5]; proglumide 5 mg/kg): can increase (in one case significantly) | effect on the analgesic effect of endogenous enkephalins ([5]; proglumide 20 mg/kg): significantly more marked both in intensity and duration
